According to patent publication US10876088B2, “Modular organ microphysiological system with integrated pumping, leveling, and sensing” (Massachusetts Institute of Technology, priority 2016, dated 2020):
Blank lines part the entries; values can stand above or below the compound they belong to.

Tests used:
[1] = system: hepatocyte-Kupffer cell co-cultures; assay: LPS stimulus of hepatocyte-Kupffer co-cultures; assay type: cell-based, human
[2] = oral, in vivo; read-out: maximum measured plasma concentration, Cmax; cited from earlier work
[3] = system: immune-competent liver MPS (hepatocytes and Kupffer cells)
Experimental: (§1) Metabolic and immunologically competent 3D cryopreserved human hepatocytes and kupffer cells were cocultured.
An immune-competent liver MPS model was prepared and studied.

[4] = human, in vivo
[5] = system: 7-way MPS platform
Experimental: The 7-way platform include gut (immune-competent), liver (immune-competent), lung, endometrium, cardiac, brain, and pancreas MPSs, and was assessed for survivability and function over a 3-week period. Each MPS was differentiated or matured in isolation prior to the interaction study. Platforms were run at a systemic flow rate of Qmix=10 mL/day, with flow partitioning. During the medium changes, a basal common medium was used for the gut, lung, liver, and endometrium MPSs, while the new MPS were supplied with their preferred maintenance media. Each basal medium was then allowed to mix throughout the course of the interaction, with media changes at 48-hour intervals. Functionality of each MPS was evaluated every 2-4 days up to 3 weeks, in comparison to isolated MPSs to benchmark the non-interacting MPS functions.

[6] = system: endometrium MPS; assay: Drug toxicity in endometrium MPS; assay type: cell-based
Experimental: An exemplary endometrium model of cell culture system in a […]® on the MPS platform includes hydrogel encapsulating stromal cells and epithelial cells on top surface of the hydrogel were cultured on the apical side of the […]®. […] The cell line used was Ishikawa human stage 1 adenocarincoma cell line, which were estrogen and progesterone receptor positive, polarized in matrigel (Chitcholtan et al., Exp Cell Research, (2013)) or functionalized PEG gels, and had low/variable secretion of glycodelin. […] The cell line used was human tert-immortalized cell line (tHESC), which was highly proliferative and stable, had low/variable secretion of prolactin or IGF-BP1 without strong decidualization cues, and could be quiesced in PEG gels.
An endometrium MPS model was prepared and studied.

[7] = system: immune-competent gut MPS (Caco2, HT29-MTX, dendritic cells)
[8] = system: immune-competent gut-liver interacted MPS; assay: Gut-liver 2-way MPS, tolcapone added to gut ("oral"); assay type: cell-based, human
Experimental: Tolcapone was added to the gut MPS to mimick “oral” administration. Metrics were an volume-weighted average from the 3 media compartments: Signalsystemic=Signalapical, gut*Vapical, gut+Signalbasal, gut*Vbasal, gut+Signalliver*Vliver.

[9] = system: hepatocyte-Kupffer cocultured liver MPS; assay: Hydrocortisone effect on cocultured liver MPS; assay type: cell-based, human
Experimental: as §1
The secretions of interleukin 6 (IL-6) and tumor necrosis factor alpha (TNFα) of the cocultured liver MPS were measured. The reproducibility of IL-6 response to LPS stimulus was determined. A physiologically-relevant (relatively low) level of cortisol was used in the common media.

Compound: Lipopolysaccharide
lowest LPS stimulus to which co-cultures were responsive [1]: ≥ 0.01 µg/mL

Compound: O=C(O)Cc1ccccc1Nc1c(Cl)cccc1Cl [Diclofenac, diclofenac]
Cmax [2]: 2 to 6 µM | liver functions [3]: impaired liver functions | cell death ([3]; immune-competent liver MPS): cell death was minimal | free drug elimination per cell rate constant [4]: 1.76×10^−10 (cell*min)^−1 | absorption and distribution across MPS compartments [5]: absorbed across the gut epithelial barrier | unbound intrinsic clearance CL_int(u) ([5]; human): 13.90 µL/min | loss of function and cellular death [6]: loss of function correlating with cellular death

mitochondrial activity ([3]; immune-competent liver MPS): decreased mitochondrial activity | epithelial barrier integrity / epithelial function [7]: complete loss of epithelial function | gut and liver function [8]: MPS-specific loss of function
Compound: Cc1ccc(C(=O)c2cc(O)c(O)c([N+](=O)[O-])c2)cc1 [Tolcapone]
cell death ([3]; immune-competent liver MPS): caused cell death | cell death [7]: severe cellular death | generic cell death marker [8]: insensitive | cell death markers ([8]; MPS-specific markers): suffered from MPS-specific cell death markers | loss of function and cellular death [6]: loss of function correlating with cellular death

CYP450 activity dependence on hydrocortisone levels ([9]; 21 day cultures): sensitive
Compound: C[C@]12CCC(=O)C=C1CC[C@@H]1[C@@H]2[C@@H](O)C[C@@]2(C)[C@H]1CC[C@]2(O)C(=O)CO [Hydrocortisone]
differentiated function ([9]; cocultured liver MPS): enhanced differentiated function | inflammatory response ([9]; cocultured liver MPS): suppressed inflammatory response
